The source of these data is PubChem BioAssay (NCI).

Test systems include BT-549 breast; HCC-2998 colon; RXF 393 renal; UACC-257 melanoma; SF-268 CNS; ACHN renal; SK-OV-3 ovarian; UACC-62 melanoma; MALME-3M melanoma; SR leukemia.
Common to all, as to assay: NCI anticancer screen, dose series, 48 h

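Cultured in 96-well plates, cells were exposed to test compound for 48 hours across five concentrations. Here, GI50 denotes the concentration required for 50% inhibition of growth. TGI marks complete inhibition of growth.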

As to `Cc1cc(=O)oc2ccc(OC/C=C3\CCC(=O)O3)cc12`, the GI50 with BT-549 breast was 7.49 µM; in the assay on HCC-2998 colon, 14.7 µM; in the assay on RXF 393 renal, 5.85 µM; in the assay on UACC-257 melanoma, 12.3 µM; with SF-268 CNS it was 13.2 µM; in the assay on ACHN renal, 0.936 µM. Moreover, the GI50 is 13.1 µM in the assay on SK-OV-3 ovarian, 10.3 µM with UACC-62 melanoma and 1.16 µM in the assay with MALME-3M melanoma. Besides, the TGI in the assay on BT-549 breast was determined as 23.4 µM; in the assay with HCC-2998 colon it was 28.1 µM; in the assay on RXF 393 renal, 21.3 µM; with UACC-257 melanoma, 28.7 µM; in the assay on SF-268 CNS, 43.6 µM; with ACHN renal, 2.14 µM. Further, the results for the TGI in the assay with SK-OV-3 ovarian, in the assay with UACC-62 melanoma and in the assay with MALME-3M melanoma were 26.2 µM, 22.8 µM and 16.9 µM, respectively.
Turning to `COc1cnc2c(c1)C(=O)c1c-2n(CCCNC2=NCCS2)c(=O)c2cc(F)ccc12`, the GI50 with BT-549 breast was 1.08 µM; with HCC-2998 colon, 12.8 µM; in the assay with SR leukemia it was 0.0499 µM; with UACC-257 melanoma, 0.456 µM; with SF-268 CNS, 0.135 µM; in the assay with ACHN renal, 0.0496 µM. In addition, the GI50 is 0.182 µM in the assay on SK-OV-3 ovarian, 0.344 µM in the assay on UACC-62 melanoma and 0.598 µM in the assay on MALME-3M melanoma. The TGI with BT-549 breast is 17.5 µM; in the assay with HCC-2998 colon, 28.6 µM; in the assay with SR leukemia it was 2.04 µM; in the assay with UACC-257 melanoma it was 20.4 µM; in the assay on SF-268 CNS it was 2.58 µM; with ACHN renal it was 1.91 µM. Besides, the values for the TGI with SK-OV-3 ovarian, with UACC-62 melanoma and in the assay with MALME-3M melanoma were 0.914 µM, 14.6 µM and 13.2 µM, respectively.
In the case of `Cn1cc(/C=C\[N+](=O)[O-])c2ccccc21`, the GI50 is 34.3 µM in the assay with BT-549 breast; 33.2 µM with HCC-2998 colon; 17.6 µM with RXF 393 renal; 33.1 µM with UACC-257 melanoma; > 100 µM in the assay on SF-268 CNS; > 100 µM in the assay on ACHN renal. For the same compound, the figures for the GI50 with SK-OV-3 ovarian, in the assay on UACC-62 melanoma and in the assay with MALME-3M melanoma were > 100 µM, 83.6 µM and > 100 µM, respectively. For the same compound, the TGI is 78.5 µM with BT-549 breast; > 100 µM with HCC-2998 colon; 32.3 µM in the assay on RXF 393 renal; > 100 µM in the assay on UACC-257 melanoma; > 100 µM in the assay on SF-268 CNS; > 100 µM in the assay on ACHN renal. Further, the TGI with SK-OV-3 ovarian, with UACC-62 melanoma and in the assay with MALME-3M melanoma was > 100 µM each time.
Take `Clc1nccc2c(-c3csc(-c4c[nH]c5ccc(Br)cc45)n3)c[nH]c12`: the GI50 was 4.7 µM in the assay with BT-549 breast; 2.22 µM with HCC-2998 colon; 1.48 µM in the assay with RXF 393 renal; 1.27 µM in the assay with SR leukemia; 2.68 µM with UACC-257 melanoma; 4.06 µM in the assay on SF-268 CNS. Moreover, the GI50 in the assay on ACHN renal was 2.02 µM; with SK-OV-3 ovarian, 2.78 µM; in the assay with UACC-62 melanoma, 2.19 µM. The TGI is 24.4 µM in the assay with BT-549 breast; 4.4 µM in the assay on HCC-2998 colon; 3.43 µM in the assay with RXF 393 renal; > 100 µM in the assay on SR leukemia; 4.88 µM in the assay with UACC-257 melanoma; 18 µM in the assay on SF-268 CNS. Also, the TGI with ACHN renal is 12.6 µM; with SK-OV-3 ovarian it was 8.27 µM; in the assay on UACC-62 melanoma, 4.84 µM.
Consider `COc1cccc2c1-c1nc(N)c3c(OC)cccc3c1C2=O`, for which the TGI in the assay on BT-549 breast, with SR leukemia, in the assay on UACC-257 melanoma, in the assay on SF-268 CNS, in the assay on SK-OV-3 ovarian and with UACC-62 melanoma was > 100 µM each time. Also, the TGI in the assay on MALME-3M melanoma is > 100 µM.
`O=C1CC2OCC=C3CN4CCC56c7ccccc7N1C5C2C3CC46O` (configuration not stated): the TGI in the assay with BT-549 breast, with HCC-2998 colon, in the assay on UACC-257 melanoma, in the assay on SF-268 CNS, in the assay with ACHN renal and in the assay with SK-OV-3 ovarian was > 100 µM in each case. In addition, the TGI in the assay on UACC-62 melanoma and in the assay with MALME-3M melanoma was > 100 µM in each case.
Take `COc1cccc(/C=C/C(=O)c2ccc3cc(OC)ccc3c2)c1`: the GI50 in the assay with BT-549 breast was 8.07 µM; in the assay with SR leukemia, 10.1 µM; in the assay with UACC-257 melanoma, > 50 µM; with SF-268 CNS, 15.5 µM; with SK-OV-3 ovarian it was 10.7 µM; in the assay on UACC-62 melanoma, 8.35 µM. Further, the TGI is 17.7 µM in the assay with BT-549 breast; > 50 µM with SR leukemia; > 50 µM in the assay with UACC-257 melanoma; > 50 µM with SF-268 CNS; 22.7 µM with SK-OV-3 ovarian; 21.9 µM in the assay with UACC-62 melanoma.
`CSc1ccc(C2=C(c3ccccc3)C(=O)OC2)cc1`: the GI50 in the assay on BT-549 breast was 16.2 µM; in the assay with HCC-2998 colon it was 0.309 µM; in the assay on RXF 393 renal, 1.87 µM; in the assay with SF-268 CNS, 3.02 µM; in the assay with ACHN renal it was 0.517 µM; in the assay with SK-OV-3 ovarian, 1.51 µM. Further, the GI50 with UACC-62 melanoma is 0.715 µM; in the assay on MALME-3M melanoma it was 3.29 µM. The TGI in the assay with BT-549 breast was > 100 µM; in the assay with HCC-2998 colon it was 18.9 µM; in the assay on UACC-257 melanoma, > 100 µM; in the assay with SF-268 CNS it was > 64.7 µM; in the assay with ACHN renal, 33.4 µM; in the assay with SK-OV-3 ovarian, > 100 µM. The TGI was 53.8 µM in the assay on UACC-62 melanoma and 64.1 µM with MALME-3M melanoma.
For `COc1ccc(-c2cc(=O)c3c(O)c(OC)c(OC)c(OC)c3o2)cc1OC`, the TGI in the assay with BT-549 breast was > 100 µM; in the assay with HCC-2998 colon, > 100 µM; with SR leukemia, > 100 µM; with UACC-257 melanoma, > 100 µM; with SF-268 CNS, 51.6 µM; in the assay with ACHN renal, > 100 µM. In addition, the TGI in the assay on SK-OV-3 ovarian is 81 µM; with UACC-62 melanoma it was > 100 µM; in the assay on MALME-3M melanoma, > 100 µM.
For the compound `NC(N)=N/N=C/c1c(-c2ccsc2)nc2n1CCS2`, the GI50 was 33.9 µM with BT-549 breast; 16 µM in the assay with HCC-2998 colon; 30.5 µM with RXF 393 renal; 12.1 µM in the assay on SR leukemia; 20.8 µM in the assay with UACC-257 melanoma; 18.4 µM in the assay with SF-268 CNS. The GI50 with ACHN renal was 18.5 µM; in the assay on SK-OV-3 ovarian, 35.4 µM; in the assay with UACC-62 melanoma, 21.6 µM. For the same compound, the TGI was 78.7 µM with BT-549 breast; 31.4 µM with HCC-2998 colon; > 100 µM with RXF 393 renal; 28.8 µM with SR leukemia; 53.1 µM in the assay on UACC-257 melanoma; 82.2 µM in the assay on SF-268 CNS. Further, the TGI with ACHN renal is 46 µM; with SK-OV-3 ovarian, > 100 µM; in the assay on UACC-62 melanoma, 69.9 µM.
